Source: publication PMC8330735 (Journal of Enzyme Inhibition and Medicinal Chemistry, 2021)
Like-named read-outs stand apart in the source and are kept apart here.

Experiments:
[1] = tested on: carrageenan-induced rat paw oedema; assay: Carrageenan-induced rat paw oedema test; type: in vivo; settings: compounds and celecoxib 50 mg/kg, ibuprofen and indomethacin 20 mg/kg; for Mean oedema thickness 1h: 1 h after carrageenan; for Mean oedema thickness 1h / Mean oedema thickness 2h / Mean oedema thickness 3h / Mean oedema thickness 4h / Mean oedema thickness 5h / Mean oedema thickness 24h / Mean oedema thickness 0h: mean ± SEM, n = 5; for Mean oedema thickness 2h: 2 h after carrageenan; for Mean oedema thickness 3h: 3 h after carrageenan; for Mean oedema thickness 4h: 4 h after carrageenan; for Mean oedema thickness 5h: 5 h after carrageenan; for Mean oedema thickness 24h: 24 h after carrageenan; for Mean oedema thickness 0h: before carrageenan (0 h); for Average oedema inhibition%: from area under the curve of all time points
Procedure: The rats were divided into nine groups (n = 5/group). All tested compounds were suspended in 1% Tween-80. Group 1, controls, were given the vehicle (1% Tween80, 10 ml/kg). […] The rats were given the drugs 1 h before the injection of carrageenan solution (1% in 0.9% NaCl, 0.1 ml) (Sigma Aldrich, USA) in the sub-planter tissue of the right hind paw. The paw thickness (mm) was measured using a calliper before (0 h) and after carrageenan injection at 1, 2, 3, 4, 5 and 24 h. The inhibition of oedema thickness was calculated using the following formula (control– drug/control) × 100.

[2] = tested on: NO production in LPS-activated RAW 264.7 macrophages; assay: NO production in LPS-activated RAW 264.7 macrophages (DAF-FM); type: cell-based; settings: Mus musculus, RAW264.7; LPS 1 µg/mL activated RAW 264.7
Procedure: HCA7 colorectal cancer cell line was obtained from Sigma. […] Louis, MO) containing 10% heat-inactivated foetal bovine serum (HI-FBS) (Gibco, USA), 100 μg/mL streptomycin (Invitrogen, USA), and […] penicillin (Invitrogen, USA)[40]. HCA7 and RAW 264.7 cells were cultured in Dulbecco's minimal essential media (DMEM, Invitrogen) containing 10% HI-FBS, sodium pyruvate (1 mM), penicillin ([…]), and streptomycin (100 mg/m)[41]^,[42]. […] Molecular Probes, USA). Briefly, RAW 264.7 cells were cultured in black 96-well plates (200,000 cells/mL, 100 µl/well) for 24 h. […] The fluorescence intensity, which is directly proportional to NO levels, was quantified, as detailed in our previous study. IC50 values were calculated from the dose–response curves.

[3] = tested on: ROS production in LPS-activated RAW 264.7 macrophages; assay: ROS production in LPS-activated RAW 264.7 macrophages (DCFH-DA); type: cell-based; settings: Mus musculus, RAW264.7; LPS 1 µg/mL activated RAW 264.7
Procedure: HCA7 colorectal cancer cell line was obtained from Sigma. […] Louis, MO) containing 10% heat-inactivated foetal bovine serum (HI-FBS) (Gibco, USA), 100 μg/mL streptomycin (Invitrogen, USA), and […] penicillin (Invitrogen, USA)[40]. HCA7 and RAW 264.7 cells were cultured in Dulbecco's minimal essential media (DMEM, Invitrogen) containing 10% HI-FBS, sodium pyruvate (1 mM), penicillin ([…]), and streptomycin (100 mg/m)[41]^,[42]. […] The cells were cultured, incubated with the different test compounds, and activated with LPS (1 µg/mL) as detailed above. […] IC50 values were calculated from the dose–response curves.

HCT116 cells = assay: MTS cell viability assay HCT116; type: cell-based; settings: Homo sapiens, HCT-116, 48 h, cell line scarcely expressing COX-2
Procedure: (§1) Human colorectal cancer cell lines, HCT116 and HT29, and RAW 264.7 macrophages were obtained from ATCC (Manassas, VA). HCA7 colorectal cancer cell line was obtained from Sigma. HT29 and HCT116 cells were cultured in McCoy's 5 A medium (Sigma Aldrich, St. Louis, MO) containing 10% heat-inactivated foetal bovine serum (HI-FBS) (Gibco, USA), 100 μg/mL streptomycin (Invitrogen, USA), and […] penicillin (Invitrogen, USA)[40]. HCA7 and RAW 264.7 cells were cultured in Dulbecco's minimal essential media (DMEM, Invitrogen) containing 10% HI-FBS, sodium pyruvate (1 mM), penicillin ([…]), and streptomycin (100 mg/m)[41]^,[42].
(§2) Cells were cultured in 96‐well plates for 48 h and then treated with serum-free media containing different concentrations of the tested compounds (12.5, 25, 50, 100 and 150 µM). After 48 h., MTS reagent (Promega) was added as directed by the manufacturer, and then, the absorbance was measured at 495 nm. The absorbance is proportional to the number of viable cells. IC50 was calculated from the dose-response curves as described previously[45] using GraphPad Prism 8 software (GraphPad Software, San Diego, CA).

HT29 cells = assay: MTS cell viability assay HT29; type: cell-based; settings: Homo sapiens, HT-29, 48 h, cell line moderately expressing COX-2
Procedure: as §1, §2

HCA7 cells = assay: MTS cell viability assay HCA7; type: cell-based; settings: Homo sapiens, HCA-7, 48 h, cell line highly expressing COX-2
Procedure: as §1, §2

[4] = tested on: stomach ulceration in rats; assay: Gastric acute ulcerogenic activity; settings: rat, n = 5; for Ulcer Index (UI): UI = UN + US + UP×10^−1
Procedure: (§3) The rats from the previous experiment were fasted for 12 h., followed by the administration of additional doses of the selected compounds or the two references for two consecutive days. Six hrs after the last treatment, the animals were sacrificed, and their stomachs were removed, washed with saline solution (0.9%) and examined for ulceration using a magnifying lens. The ulcer scores were estimated according to the method prescribed by Kulkarni and as detailed in our previous studies[36–38]. The following scores were individually assigned to each lesion: normal coloured stomach, 0; red colouration, 0.5; spot ulcers, 1; haemorrhagic streaks, 1.5; ulcer >3 but <5 mm, 2; and ulcers >5 mm, 3.

ovine COX-1 = target: T1, ovine COX-1 (Ovis aries, UniProt P05979); assay: In vitro COX-1 inhibitory assay (colorimetric Cayman kit)
T1 sequence (P05979 25-600): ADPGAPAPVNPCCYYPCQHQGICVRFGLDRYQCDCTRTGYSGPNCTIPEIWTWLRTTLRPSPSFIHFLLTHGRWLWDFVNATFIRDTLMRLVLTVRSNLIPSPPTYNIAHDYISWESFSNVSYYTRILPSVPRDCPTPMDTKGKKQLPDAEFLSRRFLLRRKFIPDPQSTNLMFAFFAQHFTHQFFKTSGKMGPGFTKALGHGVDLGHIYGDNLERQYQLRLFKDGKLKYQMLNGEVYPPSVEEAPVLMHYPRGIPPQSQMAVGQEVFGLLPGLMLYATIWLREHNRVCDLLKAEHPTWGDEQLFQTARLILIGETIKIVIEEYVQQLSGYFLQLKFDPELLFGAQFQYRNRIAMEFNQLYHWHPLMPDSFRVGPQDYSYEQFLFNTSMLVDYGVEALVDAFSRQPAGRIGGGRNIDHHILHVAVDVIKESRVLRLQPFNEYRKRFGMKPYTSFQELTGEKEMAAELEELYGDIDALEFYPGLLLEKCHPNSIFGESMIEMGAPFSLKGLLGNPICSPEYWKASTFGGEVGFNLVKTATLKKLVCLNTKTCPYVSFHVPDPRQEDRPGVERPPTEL
Procedure: (§4) All the newly synthesised compounds were tested for their ability to inhibit COX-1 and COX-2 enzymes using a screening assay method.

human recombinant COX-2 = target: T2, human recombinant COX-2 (Homo sapiens, UniProt P35354); assay: In vitro COX-2 inhibitory assay (colorimetric Cayman kit); settings: for Selectivity Index (SI): COX-1 IC50/COX-2 IC50
T2 sequence (P35354 18-604): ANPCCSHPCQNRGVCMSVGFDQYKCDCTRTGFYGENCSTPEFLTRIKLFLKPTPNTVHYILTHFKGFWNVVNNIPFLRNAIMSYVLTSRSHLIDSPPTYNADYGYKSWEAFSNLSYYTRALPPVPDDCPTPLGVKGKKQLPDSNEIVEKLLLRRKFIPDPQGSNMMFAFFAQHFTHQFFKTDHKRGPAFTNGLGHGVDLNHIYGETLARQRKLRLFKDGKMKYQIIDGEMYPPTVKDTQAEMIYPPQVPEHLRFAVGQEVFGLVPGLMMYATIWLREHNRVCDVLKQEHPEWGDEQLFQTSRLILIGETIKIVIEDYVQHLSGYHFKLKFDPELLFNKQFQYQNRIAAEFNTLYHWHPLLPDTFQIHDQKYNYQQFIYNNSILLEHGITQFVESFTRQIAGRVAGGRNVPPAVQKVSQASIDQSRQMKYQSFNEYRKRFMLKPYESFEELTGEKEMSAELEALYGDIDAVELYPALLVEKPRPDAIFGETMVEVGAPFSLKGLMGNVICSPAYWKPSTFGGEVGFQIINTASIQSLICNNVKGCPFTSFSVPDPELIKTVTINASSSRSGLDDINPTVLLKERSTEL
Procedure: as §4

[5] = tested on: acetic acid-induced writhing in mice; assay: Acetic acid induced writhing test; type: in vivo; settings: 50 mg/kg p.o., 1 h prior acetic acid i.p., within 30 min
Procedure: The number of writhes, manifested as extension of hind legs, constriction of abdomen, or turning of trunk was recorded within 30 min.

[6] = tested on: stomach ulceration in rats; settings: rat, in vivo, 2 days
Procedure: as §3

| SMILES | Mean oedema thickness 1h [1] [mm] | Mean oedema thickness 2h [1] [mm] | Mean oedema thickness 3h [1] [mm] | Mean oedema thickness 4h [1] [mm] | Mean oedema thickness 5h [1] [mm] | Mean oedema thickness 24h [1] [mm] | Mean oedema thickness 0h [1] [mm] | Average oedema inhibition% [1] [%] | IC50 [2] [µM] | IC50 [3] [µM] | IC50 (HCT116 cells) [µM] | IC50 (HT29 cells) [µM] | IC50 (HCA7 cells) [µM] | Average Ulcer number [4] | Lesion Incidence (%) [4] [%] | Number of rats with ulcer [4] | IC50 (ovine COX-1) [µM] | IC50 (human recombinant COX-2) [µM] | Selectivity Index (SI) (human recombinant COX-2) | melting point [°C] | further results |
| --- | --- | --- | --- | --- | --- | --- | --- | --- | --- | --- | --- | --- | --- | --- | --- | --- | --- | --- | --- | --- | --- |
| CN1c2ccccc2C(=O)N(NC(=O)Cc2c[nH]c3ccccc23)C1c1ccc(Cl)cc1 (stereo not shown) [4a, N-(2-(4-chlorophenyl)-1-methyl-4-oxo-1,4-dihydroquinazolin-3(2H)-yl)-2-(1H-indol-3-yl)acetamide] | 2.67 ± 0.24 | 2.90 ± 0.33 | 2.14 ± 0.25 | 2.04 ± 0.24 | 1.39 ± 0.06 | 0.54 ± 0.21 | 0.00 ± 0.00 | 33.40 | 31.5 ± 1.08 | 29.7 ± 1.07 | 75.35 ± 0.1 | 15.42 ± 0.06 | 137.3 ± 0.08 | 1.6 | 60 | 3 | 12.68 ± 0.11 | 0.04 ± 0.08 | 317.00 | – | – |
| CN1c2ccccc2C(=O)N(NC(=O)Cc2c[nH]c3ccccc23)C1c1ccc([N+](=O)[O-])cc1 (stereo not shown) [4b, 2-(1 h-indol-3-yl)-N-(1-methyl-2-(4-nitrophenyl)-4-oxo-1,4dihydroquinazolin-3(2H)-yl)acetamide] | 1.39 ± 0.09 | 1.89 ± 0.25 | 1.70 ± 0.17 | 1.14 ± 0.22 | 1.42 ± 0.28 | 0.16 ± 0.08 | 0.00 ± 0.00 | 49.47 | 32.2 ± 1.32 | 24.5 ± 2.06 | > 150 | 66.67 ± 0.07 | > 150 | 0.8 | 20 | 1 | 6.93 ± 0.15 | 0.07 | 99.00 | 239 to 243 | Ulcer Index (UI) [4]: 3 |
| O=C(CSc1nc2ccccc2c(=O)n1NC(=O)Cc1ccccc1)NNC(=O)c1ccccc1 [14c, N-(2-((2-(2-benzoylhydrazinyl)-2-oxoethyl)thio)-4-oxoquinazolin-3(4H)-yl)-2-phenylacetamide] | 3.02 ± 0.35 | 2.89 ± 0.13 | 2.42 ± 0.18 | 2.37 ± 0.19 | 2.34 ± 0.23 | 0.57 ± 0.09 | 0.00 ± 0.00 | 31.86 | 13 ± 1.36 | 16.2 ± 1.3 | > 150 | > 150 | > 150 | 0.8 | 40 | 2 | 15.4 ± 0.17 | 0.04 | 359.74 | 235 to 240 | Ulcer Index (UI) [4]: 5.3 |
| Cc1ccc(-c2cc(C(F)(F)F)nn2-c2ccc(S(N)(=O)=O)cc2)cc1 [Celecoxib, reference compound] | 1.27 ± 0.07 | 1.51 ± 0.07 | 1.49 ± 0.14 | 1.39 ± 0.12 | 1.19 ± 0.08 | 0.53 ± 0.12 | 0.00 ± 0.00 | 47.60 | – | – | 53.77 ± 0.05 | 5.82 ± 0.38 | 51.36 ± 0.04 | – | – | – | – | – | – | – | Number of writhes [5]: 29.20 writhes; Average Ulcer number [6]: 0.2; Lesion Incidence (%) [6]: 20%; Number of rats with ulcer [6]: 1 |
